Source: PMC3368886, “ATPase Cycle and DNA Unwinding Kinetics of RecG Helicase” (PLoS ONE, 2012)

Target: T1, RecG⋅DNA(A40:B40) (Thermotoga maritima, UniProt Q9WY48)
T1 construct: made in house
T1 sequence (Q9WY48 1-780): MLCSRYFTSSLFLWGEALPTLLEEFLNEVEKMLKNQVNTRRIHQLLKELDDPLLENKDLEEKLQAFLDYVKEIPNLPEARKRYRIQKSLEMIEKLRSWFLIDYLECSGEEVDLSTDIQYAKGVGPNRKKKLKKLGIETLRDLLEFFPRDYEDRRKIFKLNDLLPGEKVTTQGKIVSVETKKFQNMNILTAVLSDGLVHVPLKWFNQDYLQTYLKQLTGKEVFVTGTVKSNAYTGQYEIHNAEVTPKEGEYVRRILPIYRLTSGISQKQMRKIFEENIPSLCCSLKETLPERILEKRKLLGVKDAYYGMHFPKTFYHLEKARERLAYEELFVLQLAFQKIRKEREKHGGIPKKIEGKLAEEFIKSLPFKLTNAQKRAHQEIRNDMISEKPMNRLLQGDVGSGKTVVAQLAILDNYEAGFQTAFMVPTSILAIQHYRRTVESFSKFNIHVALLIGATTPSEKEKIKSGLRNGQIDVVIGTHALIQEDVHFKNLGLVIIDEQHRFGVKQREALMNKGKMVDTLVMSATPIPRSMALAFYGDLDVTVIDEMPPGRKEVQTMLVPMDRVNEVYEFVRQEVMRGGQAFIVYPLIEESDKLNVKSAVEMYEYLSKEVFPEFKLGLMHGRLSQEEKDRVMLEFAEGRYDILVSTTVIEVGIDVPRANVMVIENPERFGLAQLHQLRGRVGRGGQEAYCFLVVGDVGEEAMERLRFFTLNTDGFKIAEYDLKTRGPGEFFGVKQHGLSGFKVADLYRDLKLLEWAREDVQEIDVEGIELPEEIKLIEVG
Test: Stopped-flow mant fluorescence: mant nucleotide binding to RecG⋅DNA, pseudo-first-order
Settings: 20°C
Protocol: MantATP binding to RecG⋅DNA(A40:B40) was measured under pseudo-first-order conditions, that is mantATP in large excess over the protein. Using the stopped-flow apparatus, several concentrations of mantATP were rapidly mixed with RecG⋅DNA and fluorescence followed with time. Each trace was fitted by a single exponential (Figure 3A) and the concentration dependence of the observed rate constants were fit well by a hyperbola (Figure 3B). […] As mantATP is also hydrolyzed, the rate of the forward reaction needs to be included, in this case limited by the cleavage step 2, as described later. The fit gives 1/K 1a as 24 (±4) µM, k +1b + k −1b + k +2 as 26.1 (±1.8) s^−1 and the intercept gives k −1b + k +2 as <1 s^−1. Given that k +2 is 0.2 s^–1 (see below), k −1b is <0.8 s^−1. Potentially, an alternative explanation for such a hyperbolic relationship could be preferential binding of either the 2′- or 3′-isomer of mantATP and then isomerization of the non-favored isomer. However, the observed rates in these measurements were several orders of magnitude faster than the likely isomerization rate. In order to assess whether the two isomers of mantATP and their interconversion are factors in any fluorescence traces for mantATP, an equivalent measurement was made using 3′-mant-2′-deoxyATP.
Figure 3 MantATP binding to RecG⋅DNA. MantATP at the micromolar concentrations shown was mixed in the stopped flow apparatus with 0.5 µM RecG and 2.5 µM DNA Junction (A40:B40) at 20°C in the buffer described in materials and methods. Individual traces (offset from each other) were fitted to single exponentials and the dependence of the rate constants on concentration was then fitted by a hyperbola. The points shown are averages of at least 3 measurements. The fit gives 1/K 1a as 24 (±4) µM and k +1b + k− 1b + k +2 as 26.1 (±1.8) s^−1 and the intercept was <1 s^–1 (Scheme in Figure 2B).
MantADP binding to RecG⋅DNA complex was measured under pseudo-first order conditions by stopped-flow fluorescence.
Figure 5 MantADP binding kinetics to RecG⋅DNA. MantADP at various concentrations was mixed in the stopped flow apparatus with 0.5 µM RecG and 2.5 µM DNA (A40:B40) under the conditions of Figure 4. Traces (not shown) were fitted by single exponentials. The rate constants are shown as a function of concentration and the best linear fit, gives a slope of 1.1 (±0.4) µM^−1s^−1 and an intercept of <1 s^−1.
Stopped-flow experiments were performed in a HiTech SF61DX2 apparatus (TgK Scientific Ltd, Bradford-on-Avon, UK) with a mercury-xenon light source and HiTech KinetAsyst 3 or Kinetic Studio 1 software. For MDCC-PBP fluorescence, the excitation wavelength used was 436 nm and a 455 nm cut-off filter (Schott glass) used to collect emitted light. The signal was calibrated using known concentrations of Pi. The solutions contained the Pi mop, to minimize phosphate contamination and comprising 0.01 unit ml^−1 bacterial purine nucleoside phosphorylase and 200 µM 7-methylguanosine. For mant fluorescence, 366 nm was used to excite and a 400 nm cut-off filter (Schott glass) used to collect light. Measurements of Cy3 fluorescence used 547 nm excitation and a 570 nm cut-off filter. In experiments described, the quoted concentrations are those in the mixing chamber, except where stated. Data were fitted to theoretical curves using the HiTech software or Grafit.

CNc1ccccc1C(=O)O[C@H]1[C@@H](O)[C@H](n2cnc3c(N)ncnc32)O[C@@H]1COP(=O)(O)OP(=O)(O)OP(=O)(O)O [mantATP, 2′(3′)-O-(N-methylanthraniloyl)ATP]
k +1b: 25.1 s⁻¹
k −1b: <0.8 s⁻¹
k −4 (mantADP second order binding rate constant, slope) (linear fit): 1.1e+06 M⁻¹ s⁻¹
intercept, k −1b + k +2 (hyperbolic fit): < 1 s⁻¹
k +1b + k −1b + k +2 (hyperbolic fit): 26.1 (±1.8) s^−1
